Results taken from ChEMBL document CHEMBL1159273, “[Cytotoxicity of aspidospermane indole alkaloids with a modified tryptamine chain]” (J Nat Prod, 1995).

Tested on: L1210
Experiment: Cytotoxicity against mouse L1210 cells after 48 hrs by MTT method
Format: functional, cell-based
Conditions: L1210, 48 h

Compound	IC50 [µM]
CC[C@]12CCCN3CC[C@@]4(c5ccccc5N5[C@H]4[C@]5(C(=O)OC)C1)[C@@H]32	156
CC[C@]12CCC[N+]3([O-])CC[C@]4(C(=Nc5ccccc54)[C@@](Cl)(C(=O)OC)C1)[C@H]23 (some centres not stated)	27.4
CC[C@]12CCCN3C[C@@H](Br)[C@@]4(c5ccccc5N[C@H]4[C@@](Cl)(C(=O)OC)C1)[C@@H]32	46.8
CC[C@]12CCCN3[C@@H](OC)C[C@]4(C(=Nc5ccccc54)[C@@](Cl)(C(=O)OC)C1)[C@@H]32	3.1
CC[C@]12CCCN3C[C@@H](Br)[C@@]4(c5ccccc5N5[C@H]4[C@]5(C(=O)OC)C1)[C@@H]32	141
CC[C@]12CCC[N+]3([O-])C[C@@H](Br)[C@]4(C(=Nc5ccccc54)[C@@](Cl)(C(=O)OC)C1)[C@H]23 (some centres not stated)	14.1
COc1cccc2c1C(=O)c1c(O)c3c(c(O)c1C2=O)C[C@@](O)(C(=O)CO)C[C@@H]3O[C@H]1C[C@H](N)[C@H](O)[C@H](C)O1 [DOXORUBICIN]	0.03
